According to publication PMC8190884 (ACS Omega, 2021):
Marks after values point to notes of the source that are not given here.

Key:
HIV RT [1] = assay: Primer extension inhibition assay on a 100-nt DNA template; type: biochemical, HIV-1; conditions: 5 μM dNTPs, 3 μM analogue, 0.5 or 6 mM Mg2+, 30 min
HIV RT [2] = assay: Steady-state incorporation of 3′-O-CH3 dTTP by HIV RT; type: biochemical, HIV-1; conditions: 100 μM 3′-O-methyl dTTP; for kobs ± standard deviation (steady-state): 20 nM primer–template, 20 nM RT, 30 min
[3] = target: T1, HIV reverse transcriptase (RT) (Human immunodeficiency virus type 1 group M subtype B, UniProt P04585); assay: Pre-steady-state observed incorporation rate constant; type: biochemical, HIV-1; conditions: 5 μM nucleotide; for kobs ± standard deviation: 37 °C
[4] = target: T1, HIV reverse transcriptase (RT); assay: Pre-steady-state determination of KD and kpol; type: biochemical, HIV-1; conditions: for kpol (maximum incorporation rate) / Kd: curve fit ± standard error; for Kd: Kd (equilibrium dissociation constant)
HIV RT [5] = conditions: 6 mM Mg2+, different template; ref manuscript in preparation; cited from earlier work
HIV = conditions: cited from earlier work

SMILES	6/0.5 mM Mg2+ with the same nucleotide (ratio of kobs; fold slower in 0.5 mM) [3]	relative rate vs dTTP same [Mg2+] ([3]; 0.5 mM Mg2+)	kobs ± standard deviation ([3]; 0.5 mM free Mg2+)	relative rate vs dTTP same [Mg2+] ([3]; 6 mM Mg2+)	kobs ± standard deviation ([3]; 6 mM Mg2+)	other results
CO[C@H]1C[C@H](n2cc(C)c(=O)[nH]c2=O)O[C@@H]1COP(=O)(O)OP(=O)(O)OP(=O)(O)O [3′-O-methyl dTTP]	–	–	–	–	–	inhibition of primer extension (terminated vs fully extended products), in words (HIV RT [1]): no inhibition; 6/0.5 mM Mg2+ with the same nucleotide (steady-state rates) (HIV RT [2]): 5.4; kobs ± standard deviation (steady-state) (HIV RT [2]; 0.5 mM Mg2+): 3.3 × 10^–5± 0.6 × 10^–5 ^c nM/min; kobs ± standard deviation (steady-state) (HIV RT [2]; 6 mM Mg2+): 1.8 × 10^–4± 0.2 × 10^–4 ^c nM/min
Cc1cn([C@H]2C[C@H](N)[C@@H](COP(=O)(O)OP(=O)(O)OP(=O)(O)O)O2)c(=O)[nH]c1=O [3′-amino dTTP]	3.8	0.094	0.81 ± 0.13 s^–1	0.22	3.1 ± 0.1 s^–1	fold slower kobs compared to dTTP ([3]; 0.5 mM (low) Mg2+): > 10 fold
Cc1cn([C@H]2C[C@H](F)[C@@H](COP(=O)(O)OP(=O)(O)OP(=O)(O)O)O2)c(=O)[nH]c1=O [3′-fluoro dTTP]	2.8	0.063	0.54 ± 0.13 s^–1	0.11	1.5 ± 0.1 s^–1	fold slower kobs compared to dTTP ([3]; 0.5 mM (low) Mg2+): > 10 fold
CC[C@]1(COP(=O)(O)OP(=O)(O)OP(=O)(O)O)O[C@@H](n2cc(C)c(=O)[nH]c2=O)C[C@@H]1O [4′-C-ethyl dTTP]	–	0.15	1.3 ± 0.1 s^–1	0.28	3.9 ± 0.4 s^–1	inhibition of primer extension (terminated vs fully extended products), in words (HIV RT [1]): less effective; incorporation rate, fold faster than D-carba dTTP ([3]; 6 mM Mg2+): about 3 fold
Cc1cn([C@H]2C[C@H](O)[C@@](C)(COP(=O)(O)OP(=O)(O)OP(=O)(O)O)O2)c(=O)[nH]c1=O [4′-C-methyl dTTP]	0.88	0.52	4.5 ± 1.4 s^–1	0.28	3.9 ± 2.8 s^–1	incorporation rate, fold faster than D-carba dTTP ([3]; 6 mM Mg2+): about 3 fold
Cc1cn([C@H]2C[C@H](N=[N+]=[N-])[C@@H](CO[P@](=O)(O)O[P@](=O)(O)OP(=O)(O)O)O2)c(=O)[nH]c1=O [AZTTP]	4.5	0.23	2.0 ± 0.5 s^–1	0.63	8.9 ± 1.9 s^–1	fold slower kobs compared to dTTP ([3]; 6 mM (high) Mg2+): about 2 fold; efficiency decline (fold decline in kpol/Kd relative to dTTP at the same Mg2+) ([4]; 0.5 mM Mg2+): 7.2 fold; kpol/Kd (catalytic efficiency) ([4]; 0.5 mM Mg2+): 0.6; kpol (maximum incorporation rate) ([4]; 0.5 mM Mg2+): 3.3 ± 0.3 s^–1; efficiency decline (fold decline in kpol/Kd relative to dTTP at the same Mg2+) ([4]; 6 mM Mg2+): 1.5 fold; kpol (maximum incorporation rate) ([4]; 6 mM Mg2+): 17.0 ± 0.6 s^–1; Kd ([4]; 0.5 mM Mg2+): 5.5 ± 1.7 µM
Cc1cn([C@@H]2C[C@H](COP(=O)(O)OP(=O)(O)OP(=O)(O)O)[C@@H](O)C2)c(=O)[nH]c1=O [D-carba dTTP]	not strongly affected	0.13	1.1 ± 0.5 s^–1	0.092	1.3 ± 0.1 s^–1	inhibition of primer extension (terminated vs fully extended products), in words (HIV RT [1]): by far the weakest inhibitor; inhibition of primer extension (terminated vs fully extended products), in words (HIV RT [1]; listed as D-carba): weak inhibitor under both conditions; KD, fold higher than 4′-C-ethyl and 4′-C-methyl dTTP (HIV RT [5]): 4–8 fold
Nc1ncnc2c1ncn2[C@H]1CC[C@@H](CO[P@@](=O)(O)O[P@](=O)(O)OP(=O)(O)O)O1 [ddATP]	–	–	–	–	–	selectivity index, fold lower than that for AZT (HIV): about 4.5 fold

More lines, main results first:

6/0.5 mM Mg2+ with the same nucleotide (ratio of kobs; fold slower in 0.5 mM) [3]	relative rate vs dTTP same [Mg2+] ([3]; 0.5 mM Mg2+)	kobs ± standard deviation ([3]; 0.5 mM free Mg2+)	relative rate vs dTTP same [Mg2+] ([3]; 6 mM Mg2+)	kobs ± standard deviation ([3]; 6 mM Mg2+)	SMILES	other results
4.6	0.21	1.8 ± 0.7 s^–1	0.59	8.3 ± 0.8 s^–1	Cc1cn([C@H]2C=C[C@@H](COP(=O)(O)OP(=O)(O)OP(=O)(O)O)O2)c(=O)[nH]c1=O [d4TTP, 2′,3′-didehydro-2′,3′-dideoxythymidine triphosphate]	fold slower kobs compared to dTTP ([3]; 6 mM (high) Mg2+): about 2 fold; efficiency decline (fold decline in kpol/Kd relative to dTTP at the same Mg2+) ([4]; 0.5 mM Mg2+): 6.7 fold; kpol/Kd (catalytic efficiency) ([4]; 0.5 mM Mg2+): 0.64; kpol (maximum incorporation rate) ([4]; 0.5 mM Mg2+): 4.9 ± 0.5 s^–1; efficiency decline (fold decline in kpol/Kd relative to dTTP at the same Mg2+) ([4]; 6 mM Mg2+): 3.2 fold; kpol/Kd (catalytic efficiency) ([4]; 6 mM Mg2+): 1.9; kpol (maximum incorporation rate) ([4]; 6 mM Mg2+): 22.3 ± 1.7 s^–1
1.6	1	8.6 ± 1.3 s^–1	1	14.1 ± 1.2 s^–1	Cc1cn([C@H]2C[C@H](O)[C@@H](CO[P@](=O)(O)O[P@@](=O)(O)OP(=O)(O)O)O2)c(=O)[nH]c1=O [dTTP, Deoxythymidine triphosphate]	efficiency decline (fold decline in kpol/Kd relative to dTTP at the same Mg2+) ([4]; 0.5 mM Mg2+): 1 fold; kpol/Kd (catalytic efficiency) ([4]; 0.5 mM Mg2+): 4.3; kpol (maximum incorporation rate) ([4]; 0.5 mM Mg2+): 14.3 ± 0.8 s^–1; efficiency decline (fold decline in kpol/Kd relative to dTTP at the same Mg2+) ([4]; 6 mM Mg2+): 1 fold; kpol/Kd (catalytic efficiency) ([4]; 6 mM Mg2+): 6.0; kpol (maximum incorporation rate) ([4]; 6 mM Mg2+): 25.0 ± 1.3 s^–1; Kd ([4]; 0.5 mM Mg2+): 3.3 ± 0.6 µM; Kd ([4]; 6 mM Mg2+): 4.2 ± 0.7 µM
5.1	0.16	1.4 ± 0.7 s^–1	0.51	7.2 ± 1.0 s^–1	Cc1cn([C@H]2CC[C@@H](COP(=O)(O)OP(=O)(O)OP(=O)(O)O)O2)c(=O)[nH]c1=O [ddTTP, dideoxy TTP]	fold slower kobs compared to dTTP ([3]; 6 mM (high) Mg2+): about 2 fold
